Like-named read-outs stand apart in the source and are kept apart here.
Molecular target: BRAF V600E (Homo sapiens, UniProt P15056, V600E)
Assay: HiBiT cellular BRAF^V600E degradation assay
Assay type: cell-based
Conditions: for DC50: concentration at which 50% of total cellular BRAF^V600E is degraded; for Emax: read-out: HiBit 24 h Emax
[1] = A375.10 cells, 24 h, residual protein remaining in the cell

Sequence of BRAF V600E (P15056 whole entry V600E): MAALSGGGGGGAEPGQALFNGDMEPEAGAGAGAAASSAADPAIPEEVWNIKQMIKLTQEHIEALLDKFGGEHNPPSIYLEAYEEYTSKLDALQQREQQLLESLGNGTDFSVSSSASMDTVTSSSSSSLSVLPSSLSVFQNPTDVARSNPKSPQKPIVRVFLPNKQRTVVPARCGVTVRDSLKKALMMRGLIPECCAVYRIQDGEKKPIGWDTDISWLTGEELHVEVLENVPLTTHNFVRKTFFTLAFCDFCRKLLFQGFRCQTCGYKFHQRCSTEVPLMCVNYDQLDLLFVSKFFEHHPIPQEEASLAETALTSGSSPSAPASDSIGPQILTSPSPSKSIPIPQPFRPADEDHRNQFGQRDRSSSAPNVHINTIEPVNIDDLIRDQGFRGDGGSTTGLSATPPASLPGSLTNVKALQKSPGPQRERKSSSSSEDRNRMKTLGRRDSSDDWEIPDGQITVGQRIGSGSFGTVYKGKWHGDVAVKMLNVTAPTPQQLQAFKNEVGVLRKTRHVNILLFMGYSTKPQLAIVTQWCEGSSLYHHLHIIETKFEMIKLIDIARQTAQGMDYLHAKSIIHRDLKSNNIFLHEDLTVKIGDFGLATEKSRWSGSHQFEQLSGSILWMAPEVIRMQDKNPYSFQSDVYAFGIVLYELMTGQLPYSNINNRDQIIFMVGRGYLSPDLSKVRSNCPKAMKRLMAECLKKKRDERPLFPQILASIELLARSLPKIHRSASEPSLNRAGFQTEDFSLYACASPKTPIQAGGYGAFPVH

| SMILES | DC50 (A375.10 cells, 24 h) [nM] | Emax [1] [%] | Emax [%] |
| --- | --- | --- | --- |
| CCN(C)S(=O)(=O)Nc1ccc(F)c(Oc2ccc3ncn(CC4CC5(CCN(C(=O)CN6CCC(c7ccc(NC8CCC(=O)NC8=O)cc7F)CC6)CC5)C4)c(=O)c3c2)c1C#N (stereo not drawn) [Example 31, 6-[2-cyano-3-[[ethyl(methyl)sulfamoyl]amino]-6-fluorophenoxy]-3-[[7-[2-[4-[4-[(2,6-dioxopiperidin-3-yl)amino]-2-fluorophenyl]piperidin-1-yl]acetyl]-7-azaspiro[3.5]nonan-2-yl]methyl]-4-oxoquinazoline] | 46.9 | 11.6 |  |
| CCN(C)S(=O)(=O)Nc1ccc(F)c(Oc2ccc3ncn(C4CCC5(CC4)CCN(C(=O)CN4CCC(c6ccc(NC7CCC(=O)NC7=O)cc6F)CC4)C5)c(=O)c3c2)c1C#N (stereo not drawn) [Example 32, 6-[2-cyano-3-[[ethyl(methyl)sulfamoyl]amino]-6-fluorophenoxy]-3-[2-[2-[4-[4-[(2,6-dioxopiperidin-3-yl)amino]-2-fluorophenyl]piperidin-1-yl]acetyl]-2-azaspiro[4.5]decan-8-yl]-4-oxoquinazoline] | 40.3 | 11.4 |  |
| CCN(C)S(=O)(=O)Nc1ccc(F)c(Oc2ccc3ncn([C@H]4[C@@H]5CN(c6ccc(C(=O)NC7CCN(c8ccc(NC9CCC(=O)NC9=O)cc8F)CC7)cc6)C[C@@H]54)c(=O)c3c2)c1C#N (stereo partly drawn) [Example 35, 4-[6-[6-[2-cyano-3-[[ethyl(methyl)sulfamoyl]amino]-6-fluorophenoxy]-4-oxoquinazolin-3-yl]-3-azabicyclo[3.1.0]hexan-3-yl]-N-[1-[4-[(2,6-dioxopiperidin-3-yl)amino]-2-fluorophenyl]piperidin-4-yl]benzamide] | 6.82 | 13.6 |  |
| CCN(C)S(=O)(=O)Nc1ccc(F)c(Oc2ccc3ncn(CC4COC5(CCN(C(=O)CN6CCC(c7ccc(NC8CCC(=O)NC8=O)cc7F)CC6)CC5)C4)c(=O)c3c2)c1C#N (stereo not drawn) [Example 36, 3-[[6-[2-cyano-3-[[ethyl(methyl)sulfamoyl]amino]-6-fluorophenoxy]-4-oxoquinazolin-3-yl]methyl]-8-[2-[4-[4-[(2,6-dioxopiperidin-3-yl)amino]-2-fluorophenyl]piperidin-1-yl]acetyl]-1-oxa-8-azaspiro[4.5]decane] | 51.3 | 10.3 |  |
| CCN(C)S(=O)(=O)Nc1ccc(F)c(Oc2ccc3ncn(C4CC5(CCN(C(=O)NC6CCN(c7ccc(NC8CCC(=O)NC8=O)cc7F)CC6)CC5)C4)c(=O)c3c2)c1C#N (stereo not drawn) [Example 37, 2-[6-[2-cyano-3-[[ethyl(methyl)sulfamoyl]amino]-6-fluorophenoxy]-4-oxoquinazolin-3-yl]-N-[1-[4-[(2,6-dioxopiperidin-3-yl)amino]-2-fluorophenyl]piperidin-4-yl]-7-azaspiro[3.5]nonane-7-carboxamide] | 48.4 |  | 16.2 |
| CCN(C)S(=O)(=O)Nc1ccc(F)c(Oc2ccc3ncn(C4COC5(CCN(C(=O)NC6CCN(c7ccc(NC8CCC(=O)NC8=O)cc7F)CC6)CC5)C4)c(=O)c3c2)c1C#N (stereo not drawn) [Example 38, 3-[6-[2-cyano-3-[[ethyl(methyl)sulfamoyl]amino]-6-fluorophenoxy]-4-oxoquinazolin-3-yl]-N-[1-[4-[(2,6-dioxopiperidin-3-yl)amino]-2-fluorophenyl]piperidin-4-yl]-1-oxa-8-azaspiro[4.5]decane-8-carboxamide] | 36 |  | 11.4 |
| CCN(C)S(=O)(=O)Nc1ccc(F)c(Oc2ccc3ncn(C4CC5(CCN(C(=O)[C@H]6C[C@H](N7CC(c8ccc(NC9CCC(=O)NC9=O)cc8F)C7)C6)CC5)C4)c(=O)c3c2)c1C#N (stereo partly drawn) [Example 39, 6-[2-cyano-3-[[ethyl(methyl)sulfamoyl]amino]-6-fluorophenoxy]-3-[7-[3-[3-[4-[(2,6-dioxopiperidin-3-yl)amino]-2-fluorophenyl]azetidin-1-yl]cyclobutanecarbonyl]-7-azaspiro[3.5]nonan-2-yl]-4-oxoquinazoline] | 27.5 | 15.7 |  |
| CCN(C)S(=O)(=O)Nc1ccc(F)c(Oc2ccc3ncn([C@H]4COC5(CCN(C(=O)CN6CCC(c7ccc(N[C@@H]8CCC(=O)NC8=O)cc7F)CC6)CC5)C4)c(=O)c3c2)c1C#N [Example 42, (3R)-3-[6-[2-cyano-3-[[ethyl(methyl)sulfamoyl]amino]-6-fluorophenoxy]-4-oxoquinazolin-3-yl]-8-[2-[4-[4-[[(3R)-2,6-dioxopiperidin-3-yl]amino]-2-fluorophenyl]piperidin-1-yl]acetyl]-1-oxa-8-azaspiro[4.5]decane] | 22.1 | 8.88 |  |
| CCN(C)S(=O)(=O)Nc1ccc(F)c(Oc2ccc3ncn([C@H]4COC5(CCN(C(=O)CN6CCC(c7ccc(N[C@H]8CCC(=O)NC8=O)cc7F)CC6)CC5)C4)c(=O)c3c2)c1C#N [Example 43, (3R)-3-[6-[2-cyano-3-[[ethyl(methyl)sulfamoyl]amino]-6-fluorophenoxy]-4-oxoquinazolin-3-yl]-8-[2-[4-[4-[[(3S)-2,6-dioxopiperidin-3-yl]amino]-2-fluorophenyl]piperidin-1-yl]acetyl]-1-oxa-8-azaspiro[4.5]decane] | 23.7 | 9.95 |  |
| CCN(C)S(=O)(=O)Nc1ccc(F)c(Oc2ccc3ncn([C@@H]4CCC5(CCN(C(=O)CN6CCC(c7ccc(N[C@@H]8CCC(=O)NC8=O)cc7F)CC6)CC5)C4)c(=O)c3c2)c1C#N [Example 44, 6-[2-cyano-3-[[ethyl(methyl)sulfamoyl]amino]-6-fluorophenoxy]-3-[(3R)-8-[2-[4-[4-[[(3R)-2,6-dioxopiperidin-3-yl]amino]-2-fluorophenyl]piperidin-1-yl]acetyl]-8-azaspiro[4.5]decan-3-yl]-4-oxoquinazoline] | 25.1 | 14.4 |  |
| CCN(C)S(=O)(=O)Nc1ccc(F)c(Oc2ccc3ncn([C@@H]4CCC5(CCN(C(=O)CN6CCC(c7ccc(N[C@H]8CCC(=O)NC8=O)cc7F)CC6)CC5)C4)c(=O)c3c2)c1C#N [Example 45, 6-[2-cyano-3-[[ethyl(methyl)sulfamoyl]amino]-6-fluorophenoxy]-3-[(3R)-8-[2-[4-[4-[[(3S)-2,6-dioxopiperidin-3-yl]amino]-2-fluorophenyl]piperidin-1-yl]acetyl]-8-azaspiro[4.5]decan-3-yl]-4-oxoquinazoline] | 18.7 | 11.3 |  |
| CCN(C)S(=O)(=O)Nc1ccc(F)c(Oc2ccc3ncn([C@H]4COC5(CCN(C(=O)CN6CCC(c7ccc(C8CCC(=O)NC8=O)cc7F)CC6)CC5)C4)c(=O)c3c2)c1C#N (stereo partly drawn) [Example 46, (3R)-3-[6-[2-cyano-3-[[ethyl(methyl)sulfamoyl]amino]-6-fluorophenoxy]-4-oxoquinazolin-3-yl]-8-[2-[4-[4-(2,6-dioxopiperidin-3-yl)-2-fluorophenyl]piperidin-1-yl]acetyl]-1-oxa-8-azaspiro[4.5]decane] | 29.9 | 13.4 |  |
| CCN(C)S(=O)(=O)Nc1ccc(F)c(Oc2ccc3ncn([C@H]4COC5(CCN(C(=O)CC6CCN(c7ccc(NC8CCC(=O)NC8=O)cc7F)CC6)CC5)C4)c(=O)c3c2)c1C#N (stereo partly drawn) [Example 47, (3R)-3-[6-[2-cyano-3-[[ethyl(methyl)sulfamoyl]amino]-6-fluorophenoxy]-4-oxoquinazolin-3-yl]-8-[2-[1-[4-[(2,6-dioxopiperidin-3-yl)amino]-2-fluorophenyl]piperidin-4-yl]acetyl]-1-oxa-8-azaspiro[4.5]decane] | 25.7 | 19.3 |  |
| CCN(C)S(=O)(=O)Nc1ccc(F)c(Oc2ccc3ncn([C@H]4CCC5(CCN(C(=O)CN6CCN(c7ccc(NC8CCC(=O)NC8=O)cc7F)CC6)CC5)C4)c(=O)c3c2)c1C#N (stereo partly drawn) [Example 48, 6-[2-cyano-3-[[ethyl(methyl)sulfamoyl]amino]-6-fluorophenoxy]-3-[(3S)-8-[2-[4-[4-[(2,6-dioxopiperidin-3-yl)amino]-2-fluorophenyl]piperazin-1-yl]acetyl]-8-azaspiro[4.5]decan-3-yl]-4-oxoquinazoline] | 34.5 | 15.6 |  |
| N#Cc1c(NS(=O)(=O)N2CC[C@@H](F)C2)ccc(F)c1Oc1ccc2ncn([C@H]3COC4(CCN(C(=O)CN5CCC(c6ccc(NC7CCC(=O)NC7=O)cc6F)CC5)CC4)C3)c(=O)c2c1 (stereo partly drawn) [Example 49, (3R)—N-[2-cyano-3-[3-[(3R)-8-[2-[4-[4-[(2,6-dioxopiperidin-3-yl)amino]-2-fluorophenyl]piperidin-1-yl]acetyl]-1-oxa-8-azaspiro[4.5]decan-3-yl]-4-oxoquinazolin-6-yl]oxy-4-fluorophenyl]-3-fluoropyrrolidine-1-sulfonamide] | 148 | 10.8 |  |
| CCN(C)S(=O)(=O)Nc1ccc(F)c(Oc2ccc3ncn([C@H]4COC5(CCN(C(=O)CN6CCN(c7ccc(NC8CCC(=O)NC8=O)cc7F)CC6)CC5)C4)c(=O)c3c2)c1C#N (stereo partly drawn) [Example 50, (3R)-3-[6-[2-cyano-3-[[ethyl(methyl)sulfamoyl]amino]-6-fluorophenoxy]-4-oxoquinazolin-3-yl]-8-[2-[4-[4-[(2,6-dioxopiperidin-3-yl)amino]-2-fluorophenyl]piperazin-1-yl]acetyl]-1-oxa-8-azaspiro[4.5]decane] | 128 | 13.4 |  |
| CCN(C)S(=O)(=O)Nc1ccc(F)c(Oc2ccc3ncn(C4COC5(CCN(C(=O)CN6CCC(c7ccc(NC8CCC(=O)NC8=O)cc7F)CC6)CC5)C4)c(=O)c3c2F)c1C#N (stereo not drawn) [Example 51, 3-[6-[2-cyano-3-[[ethyl(methyl)sulfamoyl]amino]-6-fluorophenoxy]-5-fluoro-4-oxoquinazolin-3-yl]-8-[2-[4-[4-[(2,6-dioxopiperidin-3-yl)amino]-2-fluorophenyl]piperidin-1-yl]acetyl]-1-oxa-8-azaspiro[4.5]decane] | 29.6 | 10.9 |  |
| CCN(C)S(=O)(=O)Nc1ccc(F)c(Oc2ccc3ncn(C4CCC5(CCN(C(=O)CN6CCC(c7ccc(NC8CCC(=O)NC8=O)cc7F)CC6)CC5)C4)c(=O)c3c2F)c1C#N (stereo not drawn) [Example 52, 6-[2-cyano-3-[[ethyl(methyl)sulfamoyl]amino]-6-fluorophenoxy]-3-[8-[2-[4-[4-[(2,6-dioxopiperidin-3-yl)amino]-2-fluorophenyl]piperidin-1-yl]acetyl]-8-azaspiro[4.5]decan-3-yl]-5-fluoro-4-oxoquinazoline] | 20.7 | 11.4 |  |

Source: patent publication US12486253B2, “Therapeutics for the degradation of mutant BRAF” (C4 THERAPEUTICS, INC., priority 2021, dated 2025)
